Patent US6977262B2, “Dihydropyrazolopyridine compounds and pharmaceutical use thereof” (Mitsubishi Pharma Corporation, priority 2001, dated 2005)

Row | Compound | melting point
1 | CCCC1=C(C(=O)OCC)C(c2ccccc2Br)c2c[nH]nc2N1 (centres unmarked) [Example 29, Ethyl 4-(2-bromophenyl)-4,7-dihydro-6-propyl-2H-pyrazolo[3,4-b]pyridine-5-carboxylate] | 223 °C
2 | CCCC1=C(C(=O)OCC)C(c2ccccc2C)c2c[nH]nc2N1 (centres unmarked) [Example 30, Ethyl 4,7-dihydro-4-(2-methylphenyl)-6-propyl-2H-pyrazolo[3,4-b]pyridine-5-carboxylate] | 178 °C
3 | CCCC1=C(C(=O)OCC)C(c2ccccc2C(F)(F)F)c2c[nH]nc2N1 (centres unmarked) [Example 31, Ethyl 4,7-dihydro-6-propyl-4-(2-trifluoromethylphenyl)-2H-pyrazolo[3,4-b]pyridine-5-carboxylate] | 198 to 202 °C
4 | CCCC1=C(C(=O)OCC)C(c2ccccc2OC)c2c[nH]nc2N1 (centres unmarked) [Example 32, Ethyl 4,7-dihydro-4-(2-methoxyphenyl)-6-propyl-2H-pyrazolo[3,4-b]pyridine-5-carboxylate] | 169 °C
5 | CCCC1=C(C(=O)OCC)C(c2ccccc2OCC)c2c[nH]nc2N1 (centres unmarked) [Example 33, Ethyl 4-(2-ethoxyphenyl)-4,7-dihydro-6-propyl-2H-pyrazolo[3,4-b]pyridine-5-carboxylate] | 203 °C
6 | CCCOc1ccccc1C1C(C(=O)OCC)=C(CCC)Nc2n[nH]cc21 (centres unmarked) [Example 34, Ethyl 4,7-dihydro-4-(2-propoxyphenyl)-6-propyl-2H-pyrazolo[3,4-b]pyridine-5-carboxylate] | 205 °C
7 | CCCC1=C(C(=O)OCC)C(c2ccccc2OC(C)C)c2c[nH]nc2N1 (centres unmarked) [Example 35, Ethyl 4,7-dihydro-4-(2-isopropyloxyphenyl)-6-propyl-2H-pyrazolo[3,4-b]pyridine-5-carboxylate] | 210 °C
8 | CCCCOc1ccccc1C1C(C(=O)OCC)=C(CCC)Nc2n[nH]cc21 (centres unmarked) [Example 36, Ethyl 4-(2-butoxyphenyl)-4,7-dihydro-6-propyl-2H-pyrazolo[3,4-b]pyridine-5-carboxylate] | 171 °C
9 | CCCC1=C(C(=O)OCC)C(c2ccccc2OC2CCCC2)c2c[nH]nc2N1 (centres unmarked) [Example 37, Ethyl 4-(2-cyclopentyloxyphenyl)-4,7-dihydro-6-propyl-2H-pyrazolo[3,4-b]pyridine-5-carboxylate] | 195 °C
10 | CCCC1=C(C(=O)OCC)C(c2ccccc2OCc2ccccc2)c2c[nH]nc2N1 (centres unmarked) [Example 38, Ethyl 4-(2-benzyloxyphenyl)-4,7-dihydro-6-propyl-2H-pyrazolo[3,4-b]pyridine-5-carboxylate] | 128 °C
11 | CCCC1=C(C(=O)OCC)C(c2ccccc2SC)c2c[nH]nc2N1 (centres unmarked) [Example 39, Ethyl 4,7-dihydro-4-(2-methylthiophenyl)-6-propyl-2H-pyrazolo[3,4-b]pyridine-5-carboxylate] | 198 °C
12 | CCCC1=C(C(=O)OCC)C(c2ccccc2[S+](C)[O-])c2c[nH]nc2N1 (centres unmarked) [Example 40, Ethyl 4,7-dihydro-4-(2-methylsulfinylphenyl)-6-propyl-2H-pyrazolo[3,4-b]pyridine-5-carboxylate] | 216 °C
13 | CCCC1=C(C(=O)OCC)C(c2ccccc2[N+](=O)[O-])c2c[nH]nc2N1 (centres unmarked) [Example 41, Ethyl 4,7-dihydro-4-(2-nitrophenyl)-6-propyl-2H-pyrazolo[3,4-b]pyridine-5-carboxylate] | 218 °C
14 | CCCC1=C(C(=O)OCC)C(c2ccccc2C#N)c2c[nH]nc2N1 (centres unmarked) [Example 42, Ethyl 4-(2-cyanophenyl)-4,7-dihydro-6-propyl-2H-pyrazolo[3,4-b]pyridine-5-carboxylate] | 211 °C
15 | CCCC1=C(C(=O)OCC)C(c2cccc(F)c2F)c2c[nH]nc2N1 (centres unmarked) [Example 43, Ethyl 4-(2,3-difluorophenyl)-4,7-dihydro-6-propyl-2H-pyrazolo[3,4-b]pyridine-5-carboxylate] | 207 °C
16 | CCCC1=C(C(=O)OCC)C(c2cccc(Cl)c2Cl)c2c[nH]nc2N1 (centres unmarked) [Example 44, Ethyl 4-(2,3-dichlorophenyl)-4,7-dihydro-6-propyl-2H-pyrazolo[3,4-b]pyridine-5-carboxylate] | 220 °C
17 | CCCC1=C(C(=O)OCC)C(c2cccc(F)c2C)c2c[nH]nc2N1 (centres unmarked) [Example 45, Ethyl 4-(3-fluoro-2-methylphenyl)-4,7-dihydro-6-propyl-2H-pyrazolo[3,4-b]pyridine-5-carboxylate] | 159 to 162 °C
18 | CCCC1=C(C(=O)OCC)C(c2cccc(OC)c2OC)c2c[nH]nc2N1 (centres unmarked) [Example 46, Ethyl 4-(2,3-dimethoxyphenyl)-4,7-dihydro-6-propyl-2H-pyrazolo[3,4-b]pyridine-5-carboxylate] | 205 to 206 °C
19 | CCCC1=C(C(=O)OCC)C(c2cccc(C(F)(F)F)c2Cl)c2c[nH]nc2N1 (centres unmarked) [Example 47, Ethyl 4-(2-chloro-3-trifluoromethylphenyl)-4,7-dihydro-6-propyl-2H-pyrazolo[3,4-b]pyridine-5-carboxylate] | 236 to 238 °C

Row | Compound | melting point
20 | CCCC1=C(C(=O)OCC)C(c2cc(F)ccc2F)c2c[nH]nc2N1 (centres unmarked) [Example 49, Ethyl 4-(2,5-difluorophenyl)-4,7-dihydro-6-propyl-2H-pyrazolo[3,4-b]pyridine-5-carboxylate] | 168 to 169 °C
21 | CCCC1=C(C(=O)OCC)C(c2cc(Cl)ccc2Cl)c2c[nH]nc2N1 (centres unmarked) [Example 50, Ethyl 4-(2,5-dichlorophenyl)-4,7-dihydro-6-propyl-2H-pyrazolo[3,4-b]pyridine-5-carboxylate] | 162 °C
22 | CCCC1=C(C(=O)OCC)C(c2cc(F)ccc2OC)c2c[nH]nc2N1 (centres unmarked) [Example 51, Ethyl 4-(5-fluoro-2-methoxyphenyl)-4,7-dihydro-6-propyl-2H-pyrazolo[3,4-b]pyridine-5-carboxylate] | 164 to 167 °C
23 | CCCC1=C(C(=O)OCC)C(c2cc(OC)ccc2Cl)c2c[nH]nc2N1 (centres unmarked) [Example 52, Ethyl 4-(2-chloro-5-methoxyphenyl)-4,7-dihydro-6-propyl-2H-pyrazolo[3,4-b]pyridine-5-carboxylate] | 182 °C
24 | CCCC1=C(C(=O)OCC)C(c2cc(OC)ccc2OC)c2c[nH]nc2N1 (centres unmarked) [Example 53, Ethyl 4-(2,5-dimethoxyphenyl)-4,7-dihydro-6-propyl-2H-pyrazolo[3,4-b]pyridine-5-carboxylate] | 169 to 170 °C
25 | CCCC1=C(C(=O)OCC)C(c2c(F)cccc2F)c2c[nH]nc2N1 (centres unmarked) [Example 54, Ethyl 4-(2,6-difluorophenyl)-4,7-dihydro-6-propyl-2H-pyrazolo[3,4-b]pyridine-5-carboxylate] | 185 °C
26 | CCCC1=C(C(=O)OCC)C(c2c(Cl)cccc2Cl)c2c[nH]nc2N1 (centres unmarked) [Example 55, Ethyl 4-(2,6-dichlorophenyl)-4,7-dihydro-6-propyl-2H-pyrazolo[3,4-b]pyridine-5-carboxylate] | 202 °C
27 | CCCC1=C(C(=O)OCC)C(c2c(F)cccc2Cl)c2c[nH]nc2N1 (centres unmarked) [Example 56, Ethyl 4-(2-chloro-6-fluorophenyl)-4,7-dihydro-6-propyl-2H-pyrazolo[3,4-b]pyridine-5-carboxylate] | 180 to 183 °C
28 | CCCC1=C(C(=O)OCC)C(c2ccco2)c2c[nH]nc2N1.O=C(O)/C=C\C(=O)O (centres unmarked) [Example 59, Ethyl 4-(furan-2-yl)-4,7-dihydro-6-propyl-2H-pyrazolo[3,4-b]pyridine-5-carboxylate maleate] | 108 to 111 °C
29 | CCCC1=C(C(=O)OCC)C(c2ccoc2C)c2c[nH]nc2N1 (centres unmarked) [Example 61, Ethyl 4,7-dihydro-4-(2-methylfuran-3-yl)-6-propyl-2H-pyrazolo[3,4-b]pyridine-5-carboxylate] | 123 to 125 °C
30 | CCCC1=C(C(=O)OCC)C(c2cccs2)c2c[nH]nc2N1.O=C(O)/C=C\C(=O)O (centres unmarked) [Example 62, Ethyl 4,7-dihydro-6-propyl-4-(thiophen-2-yl)-2H-pyrazolo[3,4-b]pyridine-5-carboxylate maleate] | 129 to 131 °C
31 | CCCC1=C(C(=O)OCC)C(c2sccc2C)c2c[nH]nc2N1 (centres unmarked) [Example 63, Ethyl 4,7-dihydro-4-(3-methylthiophen-2-yl)-6-propyl-2H-pyrazolo[3,4-b]pyridine-5-carboxylate] | 125 °C
32 | CCCC1=C(C(=O)OCC)C(c2ccc(Cl)s2)c2c[nH]nc2N1.O=C(O)/C=C\C(=O)O (centres unmarked) [Example 64, Ethyl 4-(5-chlorothiophen-2-yl)-4,7-dihydro-6-propyl-2H-pyrazolo[3,4-b]pyridine-5-carboxylate maleate] | 129 to 131 °C
33 | CCCC1=C(C(=O)OCC)C(c2ccsc2)c2c[nH]nc2N1.O=C(O)/C=C\C(=O)O (centres unmarked) [Example 65, Ethyl 4,7-dihydro-6-propyl-4-(thiophen-3-yl)-2H-pyrazolo[3,4-b]pyridine-5-carboxylate maleate] | 141 to 143 °C
34 | CCCC1=C(C(=O)OCC)C(c2cccc3ccccc23)c2c[nH]nc2N1 (centres unmarked) [Example 66, Ethyl 4,7-dihydro-4-(naphthalen-1-yl)-6-propyl-2H-pyrazolo[3,4-b]pyridine-5-carboxylate] | 182 °C
35 | CCCC1=C(C(=O)OCC)C(c2ccc3ccccc3c2)c2c[nH]nc2N1.O=C(O)/C=C\C(=O)O (centres unmarked) [Example 67, Ethyl 4,7-dihydro-4-(naphthalen-2-yl)-6-propyl-2H-pyrazolo[3,4-b]pyridine-5-carboxylate maleate] | 136 to 138 °C
36 | CCCC1=C(C(=O)OCC)C(c2c(OC)ccc3ccccc23)c2c[nH]nc2N1 (centres unmarked) [Example 68, Ethyl 4,7-dihydro-4-(2-methoxynaphthalen-1-yl)-6-propyl-2H-pyrazolo[3,4-b]pyridine-5-carboxylate] | 188 to 191 °C
37 | CCCC1=C(C(=O)OCC)C(c2cccc3c2OCC=C3)c2c[nH]nc2N1 (centres unmarked) [Example 72, Ethyl 4-(2H-1-benzopyran-8-yl)-4,7-dihydro-6-propyl-2H-pyrazolo[3,4-b]pyridine-5-carboxylate] | 194 °C
38 | CCCC1=C(C(=O)OCC)C(c2cccc3c2OCCC3)c2c[nH]nc2N1 (centres unmarked) [Example 73, Ethyl 4-(3,4-dihydro-2H-benzopyran-8-yl)-4,7-dihydro-6-propyl-2H-pyrazolo[3,4-b]pyridine-5-carboxylate] | 208 °C
